Reference: US8273783B2, “Microbiocides” (Syngenta Crop Protection LLC, priority 2009, dated 2012)

Assays:
[1] = test system: Erysiphe Graminis f.sp. Tritici; assay: Action against Erysiphe graminis f.sp. tritici (wheat powdery mildew), leaf segments, preventive; format: in vivo; conditions: Blumeria graminis, foliar, 168 h, 0.02% active ingredient, assessed 7 days after inoculation, read-out: inhibition (preventive fungicidal activity)
Protocol: (§1) Wheat leaf segments were placed on agar in multiwell plates (24-well format) and sprayed with test solutions (0.02% active ingredient). After drying, the leaf disks were inoculated with a spore suspension of the fungus. After appropriate incubation the activity of a compound was assessed 7 days after inoculation as preventive fungicidal activity.

[2] = test system: Mycosphaerella arachidis; assay: Action against Mycosphaerella arachidis, liquid culture (early leaf spot); format: cell-based; conditions: PDB potato dextrose broth, 0.02% active ingredient, 24° C., photometrically after 6-7 days, read-out: inhibition of growth
Protocol: (§2) Conidia of the fungus from cryogenic storage were directly mixed into nutrient broth (PDB potato dextrose broth). After placing a (DMSO) solution of the test compounds (0.02% active ingredient) into a microtiter plate (96-well format) the nutrient broth containing the fungal spores was added. The test plates were incubated at 24° C. and the inhibition of growth was measured photometrically after 6-7 days.

[3] = test system: Pyrenophora teres; assay: Action against Pyrenophora teres (net blotch) on barley leaf segments; format: in vivo; conditions: foliar, 96 h, 0.02% active ingredient, assessed 4 days after inoculation, read-out: inhibition (preventive fungicidal activity)
Protocol: as §1, with “Barley” for “Wheat”, “4” for “7”

[4] = test system: Puccinia Recondita; assay: Preventive action against Puccinia recondita (brown rust) on wheat leaf segments; format: in vivo; conditions: foliar, 192 h, 0.02% active ingredient, assessed 8 days after inoculation, read-out: inhibition (preventive fungicidal activity)
Source text: Wheat leaf segments were placed on agar in multiwell plates (24-well format) and sprayed with test solutions (0.02% active ingredient). After drying, the leaf disks were inoculated with a spore suspension of the fungus.

[5] = test system: Botryotinia fuckelianal; assay: Action against Botryotinia fuckeliana, liquid culture (gray mould); format: cell-based; conditions: Botrytis cinerea; nutrient broth, 0.02% active ingredient, 24° C., photometrically after 3-4 days; read-out: inhibition of growth
Protocol: as §2, with “broth.” for “broth (PDB potato dextrose broth).”, “solution (0.02% active ingredient)” for “solution”, “compounds” for “compounds (0.02% active ingredient)”, “determined” for “measured”, “3-4” for “6-7”

[6] = test system: Phaeosphaeria nodorum; assay: Preventive action against Phaeosphaeria nodorum (glume blotch) on wheat leaf segments; format: in vivo; conditions: Parastagonospora nodorum, foliar, 96 h, 0.02% active ingredient, assessed 4 days after inoculation, read-out: inhibition (preventive fungicidal activity)
Protocol: Wheat leaf segments were placed on agar in a multiwell plate (24-well format) and sprayed with test solutions (0.02% active ingredient). After drying, the leaf disks were inoculated with a spore suspension of the fungus. After appropriate incubation the activity of a compound was assessed 4 days after inoculation as preventive fungicidal activity.

[7] = test system: Puccinia Recondita; assay: Curative action against Puccinia recondita (brown rust) on wheat leaf segments; format: in vivo; conditions: foliar, sprayed one day after inoculation, 0.02% active ingredient, assessed 8 days after inoculation, read-out: inhibition (curative fungicidal activity)
Source text: Wheat leaf segments were placed on agar in multiwell plates (24-well format) and inoculated with a spore suspension of the fungus. One day after inoculation the leaf segments were sprayed with test solutions (0.02% active ingredient).

| melting point [°C] | SMILES | inhibition at 0.02 % strength [1] [%] | inhibition at 0.02 % strength [2] [%] | inhibition at 0.02 % strength [3] [%] | inhibition at 0.02 % strength [4] [%] | inhibition at 0.02 % strength [5] [%] | inhibition at 0.02 % strength [6] [%] | inhibition at 0.02 % strength [7] [%] |
| --- | --- | --- | --- | --- | --- | --- | --- | --- |
| – | COC(c1csc(Cl)c1Cl)C(C)N(OC)C(=O)c1cn(C)nc1C(F)F (stereo not drawn) [1.037 (diastereoisomer pair 1), 3-difluoromethyl-1-methyl-1H-pyrazole-4-carboxylic acid methoxy-[2-methoxy-1-methyl-2-(4,5-dichlorothiophen-3-yl)ethyl]amide] | ≥ 80 | ≥ 80 | ≥ 80 | ≥ 80 | ≥ 80 | – | – |
| 113 to 116 | COC(c1c(Cl)sc(Cl)c1Cl)C(C)N(OC)C(=O)c1cn(C)nc1C(F)F (centres unmarked) [Compound 1.016, 3-difluoromethyl-1-methyl-1H-pyrazole-4-carboxylic acid methoxy-[2-methoxy-1-methyl-2-(2,4,5-trichlorothiophene-3-yl)ethyl]amide] | ≥ 80 | ≥ 80 | ≥ 80 | ≥ 80 | ≥ 80 | ≥ 80 | ≥ 80 |
| – | COC(c1csc(Cl)c1Cl)C(C)N(OC)C(=O)c1cn(C)nc1C(F)F (stereo not drawn) [1.037 (diastereoisomer pair 2), 3-difluoromethyl-1-methyl-1H-pyrazole-4-carboxylic acid methoxy-[2-methoxy-1-methyl-2-(4,5-dichlorothiophen-3-yl)ethyl]amide] | – | – | – | – | – | – | ≥ 80 |
| 80 to 83 | COC(c1csc(Cl)c1Cl)C(C)N(OC)C(=O)c1cn(C)nc1C(F)F (centres unmarked) [Compound 1.037, 3-difluoromethyl-1-methyl-1H-pyrazole-4-carboxylic acid methoxy-[2-methoxy-1-methyl-2-(4,5-dichlorothiophen-3-yl)ethyl]amide] | – | – | – | – | – | – | – |
| 70 to 72 | CON(C(=O)c1cn(C)nc1C(F)F)C(C)Cc1c(Cl)sc(Cl)c1Cl (centres unmarked) [Compound 1.001, 3-difluoromethyl-1-methyl-1H-pyrazole-4-carboxylic acid methoxy-[1-methyl-2-(2,4,5-trichlorothiophene-3-yl)ethyl]amide] | ≥ 80 | ≥ 80 | ≥ 80 | ≥ 80 | ≥ 80 | ≥ 80 | ≥ 80 |
